Assay [1] addresses T1, Fructose-1,6-bisphosphatase 1 (Homo sapiens, UniProt P09467).
T1 sequence (P09467 whole entry): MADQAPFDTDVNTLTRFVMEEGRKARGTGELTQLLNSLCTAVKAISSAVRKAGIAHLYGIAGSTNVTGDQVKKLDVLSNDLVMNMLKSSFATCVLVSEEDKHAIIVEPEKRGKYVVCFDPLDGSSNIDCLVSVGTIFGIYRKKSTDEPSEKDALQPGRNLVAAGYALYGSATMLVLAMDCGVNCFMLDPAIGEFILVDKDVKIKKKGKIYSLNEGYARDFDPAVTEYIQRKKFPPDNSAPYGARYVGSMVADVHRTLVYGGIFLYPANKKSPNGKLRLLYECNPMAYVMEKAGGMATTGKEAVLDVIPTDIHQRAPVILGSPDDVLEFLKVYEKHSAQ
The assay is described as follows: Inhibition of human recombinant FBPase expressed in Escherichia coli BL21(DE3) by phosphoglucose isomerase and glucose-6-phosphate dehydrogenase coupled assay.

Assay [2] addresses T1, Fructose-1,6-bisphosphatase 1. The assay is described as follows: Inhibition of FBPase (unknown origin).

Consider `CCc1c(C(=O)O)[nH]c2c([N+](=O)[O-])cc(CC(C)C)cc12`, for which the IC50 in assay [1] was 0.99 µM.
As for `Cc1cccc(Nc2ccc([N+](=O)[O-])c3[nH]c(C(=O)O)cc23)c1`, in assay [1], the IC50 was 4.3 µM.
Regarding `Cc1ccc(Nc2ccc([N+](=O)[O-])c3[nH]c(C(=O)O)cc23)cc1`, the IC50 in assay [1] was determined as 33.9 µM.
For `CC(=O)Nc1cccc(Nc2ccc([N+](=O)[O-])c3[nH]c(C(=O)O)cc23)c1`, the IC50 in assay [1] is over 50 µM.
Turning to `Nc1cccc(Nc2ccc([N+](=O)[O-])c3[nH]c(C(=O)O)cc23)c1`, the IC50 in assay [1] is over 50 µM.
Same read-out and setting: with `COc1cccc(N(C)c2ccc([N+](=O)[O-])c3[nH]c(C(=O)O)cc23)c1` the figure was over 50 µM.
On the same count and under the same terms, then `CCCN(c1cccc(OC)c1)c1ccc([N+](=O)[O-])c2[nH]c(C(=O)O)cc12`, with over 50 µM.
Regarding `O=C(O)c1cc2c(-c3ccccc3)ccc([N+](=O)[O-])c2[nH]1`, the IC50 in assay [1] was over 50 µM.
Same read-out and setting: then `COc1cccc(-c2ccc([N+](=O)[O-])c3[nH]c(C(=O)O)cc23)c1`, with over 50 µM.
Still for that read-out and setting: with `O=C(O)c1cc2c(-c3cccc(Cl)c3)ccc([N+](=O)[O-])c2[nH]1` the figure was over 50 µM; with `O=C(O)c1cc2c(-c3ccc(Cl)cc3)ccc([N+](=O)[O-])c2[nH]1`, over 50 µM; with `N#Cc1cccc(-c2ccc([N+](=O)[O-])c3[nH]c(C(=O)O)cc23)c1`, over 50 µM.
Still for that read-out and setting: then `N#Cc1ccc(-c2ccc([N+](=O)[O-])c3[nH]c(C(=O)O)cc23)cc1`, with over 50 µM.
Take `Cc1cccc(-c2ccc([N+](=O)[O-])c3[nH]c(C(=O)O)cc23)c1`: the IC50 in assay [1] is 25.9 µM.
The same measure, in the same setting: with `O=C(O)c1cc2c(-c3cccc(C(F)(F)F)c3)ccc([N+](=O)[O-])c2[nH]1` the figure was over 50 µM.
Same read-out and setting: with `O=C(O)c1cc2c(-c3ccc(C(F)(F)F)cc3)ccc([N+](=O)[O-])c2[nH]1` the figure was over 50 µM; with `CC(=O)Nc1cccc(-c2ccc([N+](=O)[O-])c3[nH]c(C(=O)O)cc23)c1`, 18.5 µM.
Turning to `Nc1cccc(-c2ccc([N+](=O)[O-])c3[nH]c(C(=O)O)cc23)c1`, in assay [1], the IC50 was over 50 µM.
Regarding `CC(C)Cc1ccc([N+](=O)[O-])c2[nH]c(C(=O)O)cc12`, the IC50 in assay [1] came to 9.7 µM.
For the compound `CC(C)Cc1cc([N+](=O)[O-])c2[nH]c(C(=O)O)cc2c1`, the half-maximal inhibitory concentration (IC50) in assay [1] worked out at 5.4 µM.
Turning to `CC(=O)Nc1cccc(-c2cc([N+](=O)[O-])c3[nH]c(C(=O)O)cc3c2)c1`, the IC50 in assay [1] is 3.7 µM.
`COc1cccc(Nc2cc([N+](=O)[O-])c3[nH]c(C(=O)O)cc3c2)c1`: in assay [1], the IC50 is 4.06 µM.
In the case of `CCc1c(C(=O)O)[nH]c2c([N+](=O)[O-])cccc12`, the IC50 in assay [1] is 6.2 µM.
With `CC(C)Cc1c(C(=O)O)[nH]c2c([N+](=O)[O-])cccc12`, in assay [1], the IC50 is 10.3 µM.
In the case of `O=C(O)c1[nH]c2c([N+](=O)[O-])cccc2c1-c1ccccc1`, the IC50 in assay [1] was 12.7 µM.
Same read-out and setting: then `COc1cccc(-c2c(C(=O)O)[nH]c3c([N+](=O)[O-])cccc23)c1`, with 35.6 µM; and `CC(=O)Nc1cccc(-c2c(C(=O)O)[nH]c3c([N+](=O)[O-])cccc23)c1`, with 7.4 µM; and `O=C(O)c1[nH]c2c([N+](=O)[O-])cccc2c1-c1cccc(F)c1`, with 4.5 µM.
The same measure, in the same setting: with `O=C(O)c1cc2c(Nc3ccccc3)ccc([N+](=O)[O-])c2[nH]1` the figure was over 50 µM.
For the compound `COc1ccccc1Nc1ccc([N+](=O)[O-])c2[nH]c(C(=O)O)cc12`, the IC50 in assay [1] was over 50 µM.
Still for that read-out and setting: with `COc1cccc(Nc2ccc([N+](=O)[O-])c3[nH]c(C(=O)O)cc23)c1` the figure was 25.6 µM; with `COc1ccc(Nc2ccc([N+](=O)[O-])c3[nH]c(C(=O)O)cc23)cc1`, over 50 µM; with `COc1ccc(Nc2ccc([N+](=O)[O-])c3[nH]c(C(=O)O)cc23)cc1OC`, 7.7 µM.
As for `COc1cc(Nc2ccc([N+](=O)[O-])c3[nH]c(C(=O)O)cc23)cc(OC)c1OC`, the IC50 in assay [1] was over 50 µM.
In the case of `O=C(O)c1cc2c(Nc3cccc(C(F)(F)F)c3)ccc([N+](=O)[O-])c2[nH]1`, in assay [1], the IC50 stood at 29.1 µM.
On the same count and under the same terms, then `O=C(O)c1cc2c(Nc3ccc(C(F)(F)F)cc3)ccc([N+](=O)[O-])c2[nH]1`, with 12.2 µM; and `O=C(O)c1cc2c(Nc3cccc(Cl)c3)ccc([N+](=O)[O-])c2[nH]1`, with over 50 µM.
For `O=C(O)c1cc2c(Nc3ccc(Cl)cc3)ccc([N+](=O)[O-])c2[nH]1`, the IC50 in assay [1] is over 50 µM.
On the same count and under the same terms, then `O=C(O)c1cc2c(Nc3cccc([N+](=O)[O-])c3)ccc([N+](=O)[O-])c2[nH]1`, with over 50 µM.
The same measure, in the same setting: with `O=C(O)c1cc2c(Nc3ccc([N+](=O)[O-])cc3)ccc([N+](=O)[O-])c2[nH]1` the figure was 3.4 µM.
In the case of `O=C(O)CCc1c(C(=O)O)[nH]c2cc(Cl)cc(Cl)c12`, the IC50 amounted to 2 µM in assay [1] and 2.5 µM in assay [2].
With `Nc1ncnc2c1ncn2[C@@H]1O[C@H](COP(=O)(O)O)[C@@H](O)[C@H]1O` [ADENOSINE PHOSPHATE], in assay [1], the IC50 was determined as 3.2 µM.

These data come from ChEMBL document CHEMBL3124937, “Design, synthesis and biological evaluation of 7-nitro-1H-indole-2-carboxylic acid derivatives as allosteric inhibitors of fructose-1,6-bisphosphatase” (Bioorg Med Chem, 2014).
